Data on one compound can be found in patent US9205073B2, “Method for treating virus infection using derivative of aniline” (CHINA MEDICAL UNIVERSITY, priority 2014, dated 2015).

The test system of experiment [1] is EV71. Kind of experiment: Enterovirus replication, plaque test in RD cells. The note with it: Enterovirus A, 36 h, read-out: inhibitory rate of EV 71 replication. It counts as cell-based, enterovirus type 71. Here is the method: The RD cells were cultured in a 24-well culture plate with an initial density of 3×10^4 per well, as well as with 1 ml of 2% FBS-containing MEM medium per well. The cells were incubated in an incubator (37° C., 5% CO2) overnight. The medium was removed, and then, 1 ml of fresh 2% FBS-containing MEM medium was simultaneously added into each well. The RD cells were infected with an EV71 virus strain (M.O.I.=0.1). Different concentrations of compound 1 (final concentrations were 0, 2.5, 25 and 125 μM) were added into different wells respectively. RD cells were incubated in an incubator (37° C., 5% CO2) for 36 hours, and then the viral medium was collected for the following plaque test.
The RD cells were cultured in a 6-well culture plate, and incubated in an incubator (37° C., 5% CO2) overnight. The medium was removed, and then 200 μl of the above 10^4 times diluted viral medium was added into each well. The cells were infected for 1 hour. Then, 3 ml of a 3% agarose covering solution was added into each well. The cells were incubated in an incubator (37° C., 5% CO2) for 3 days. The covering solution was removed. Methyl blue was added into each well, and the plate was placed at room temperature overnight, and then washed with clear water, and dried. The number of plaques was counted to calculate the virus titer and inhibitory rate.

Experiment [2] concerns JAK-STAT, AkT-mTOR and ERK-CREB signaling pathway-related proteins. In words: Western blot of signaling pathway phosphorylation in JEV T1P1-infected TE671 cells. It counts as cell-based. The note with it: 36 hours, 2.5-250 μM. On the procedure: TE671cells were cultured in a 6-well culture plate at an initial density of 3×10^5 per well with 2 ml of 2% FBS-containing MEM medium per well. The cells were incubated in an incubator (37° C., 5% CO2) overnight. The medium was removed until the cells adhered to the plate. 1 ml of fresh 2% FBS-containing MEM medium was simultaneously added into each well. The cells were infected with JEV T1P1virus strain (M.O.I.=0.05). Different concentrations of compound 1 (the final concentrations were 0, 2.5, 25, 125 and 250 μM, respectively) were added into different wells. The cells were incubated in an incubator (37° C., 5% CO2) for 36 hours. The supernatant was removed, and the TE671 cells were washed with PBS. The PBS was removed, and 150 μl Trypsin-EDTA was added into each well. The cells were incubated in an incubator at 37° C. for 3 minutes. Then, 1 ml MEM medium was added into each well to neutralize EDTA, and the cells were separately collected into 15 ml tubes and precipitated by centrifugation (2000 rpm, 3 minutes). The supernatants were removed. The cells were resuspended with 1 ml PBS per tube, transferred into 1.5 ml microtubes respectively, and precipitated by centrifugation (2000 rpm, 3 minutes). The supernatants were removed and 100 μl radioimmunoprecipitation buffer (RIPA buffer) was added into each well. […]
The above protein samples were analyzed by protein electrophoresis. […]

For the compound `CCOC(=O)C1=C(Nc2cc(C)cc(C)c2)OCC1=O` [Compound 1, ethyl 2-(3′,5′-dimethylanilino)-4-oxo-4,5-dihydrofuran-3-carboxylate], in experiment [1], the inhibition at 2.5 µM was 4.6%, the inhibition at 25 µM is 23% and the inhibition at 125 µM came to 24.6%. In experiment [2], the “phosphorylation levels of JAK-STAT, AkT-mTOR and ERK-CREB signaling pathway-related proteins” value is “increased in a concentration dependent manner”.
